IC50 and Kd data for twelve compounds are collected here from patent publication US20250368666A1, “INDAZOLE COMPOUNDS” (TYRA BIOSCIENCES, INC., priority 2022, published 2025).

The test system of test [1] is RT112/84 cell line (FGFR3-fusion). The experiment in a line: Cancer cell line cell viability assay (Cell Titer-Glo), 72 hr. Type of test: cell-based. The following applies: Homo sapiens, RT112/84, RT112/84 cell line (FGFR3-fusion). A digest of the protocol: (§1)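 Intracellular ATP was measured by Cell Titer-Glo 2.0 luminescence after cells were incubated with compound dilutions (top 3 μM, 4-fold, 9 doses). Values were expressed relative to DMSO-treated cells and IC50 was calculated from a variable-slope dose-response curve.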
For orientation: In ATP-based viability assays light output follows the ATP content of the culture.

Test [2] has as its system KG-1 cell line (FGFR 1-fusion). The description is as above. Type of test: cell-based. The settings on record: Homo sapiens, KG-1, KG-1 cell line (FGFR1-fusion). A digest of the protocol: as §1
The subject of test [3] is KATO-III cell line (FGFR2 amplification). Described as above. In kind it is cell-based. The following applies: Homo sapiens, KATO III. The method, boiled down: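 5,000-20,000 cells/well o/n; cpd 9-pt 4x dil from 3 μM, n=3; 37° C/5% CO2; CTG 2.0 lumi; % DMSO ctrl; 4PL IC50.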
The next test has as its target T1, FGFR3 (V555M) (Homo sapiens, UniProt P22607, V555M).
T1 construct: made in house; host or cells: E. coli (BL21-derived), T7 phage
The experiment in a line: Kinase binding assay (kinase-tagged T7 phage, affinity beads, qPCR), Kd. The following applies: V555M mutant; read-out: FGFR3 (V555M) (Kd nM). A digest of the protocol: (§2)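 Competition binding; kinase-tagged T7 phage lysate vs immobilised biotinylated ligand on streptavidin beads, 0.9% DMSO final. 11-pt 3-fold dilutions, 3 DMSO controls. qPCR of eluted kinase; Kd by Hill fit, slope −1.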

A further test deals with T2, FGFR2 (Homo sapiens, UniProt P21802).
T2 construct: made in house; host or cells: E. coli (BL21-derived), T7 phage
T2 sequence (P21802 22-821): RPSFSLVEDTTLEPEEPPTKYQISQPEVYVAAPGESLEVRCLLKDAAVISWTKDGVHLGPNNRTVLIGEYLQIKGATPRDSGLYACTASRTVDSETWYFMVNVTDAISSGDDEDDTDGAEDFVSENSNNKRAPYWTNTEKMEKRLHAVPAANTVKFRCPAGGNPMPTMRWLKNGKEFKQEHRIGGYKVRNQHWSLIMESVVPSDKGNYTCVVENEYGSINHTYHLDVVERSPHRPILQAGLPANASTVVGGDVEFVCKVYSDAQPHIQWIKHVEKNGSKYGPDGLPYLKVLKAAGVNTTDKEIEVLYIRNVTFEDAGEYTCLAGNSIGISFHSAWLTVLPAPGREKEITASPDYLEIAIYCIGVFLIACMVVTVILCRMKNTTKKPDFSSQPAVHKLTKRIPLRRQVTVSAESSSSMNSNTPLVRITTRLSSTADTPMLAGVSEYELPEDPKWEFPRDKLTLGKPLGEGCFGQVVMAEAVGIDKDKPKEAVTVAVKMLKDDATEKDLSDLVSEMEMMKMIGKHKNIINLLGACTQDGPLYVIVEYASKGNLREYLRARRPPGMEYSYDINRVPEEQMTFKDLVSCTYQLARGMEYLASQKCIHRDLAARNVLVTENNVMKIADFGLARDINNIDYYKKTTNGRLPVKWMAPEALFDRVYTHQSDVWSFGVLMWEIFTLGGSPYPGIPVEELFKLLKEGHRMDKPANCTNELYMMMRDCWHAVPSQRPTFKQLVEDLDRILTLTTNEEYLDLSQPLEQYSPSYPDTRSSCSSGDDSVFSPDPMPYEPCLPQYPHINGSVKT
The test is described as above. The settings on record: read-out: FGFR2 (Kd nM). A digest of the protocol:
as §2

Another test deals with T3, FGFR1 (Homo sapiens, UniProt P11362).
T3 construct: made in house; host or cells: E. coli (BL21-derived), T7 phage
T3 sequence (P11362 22-822): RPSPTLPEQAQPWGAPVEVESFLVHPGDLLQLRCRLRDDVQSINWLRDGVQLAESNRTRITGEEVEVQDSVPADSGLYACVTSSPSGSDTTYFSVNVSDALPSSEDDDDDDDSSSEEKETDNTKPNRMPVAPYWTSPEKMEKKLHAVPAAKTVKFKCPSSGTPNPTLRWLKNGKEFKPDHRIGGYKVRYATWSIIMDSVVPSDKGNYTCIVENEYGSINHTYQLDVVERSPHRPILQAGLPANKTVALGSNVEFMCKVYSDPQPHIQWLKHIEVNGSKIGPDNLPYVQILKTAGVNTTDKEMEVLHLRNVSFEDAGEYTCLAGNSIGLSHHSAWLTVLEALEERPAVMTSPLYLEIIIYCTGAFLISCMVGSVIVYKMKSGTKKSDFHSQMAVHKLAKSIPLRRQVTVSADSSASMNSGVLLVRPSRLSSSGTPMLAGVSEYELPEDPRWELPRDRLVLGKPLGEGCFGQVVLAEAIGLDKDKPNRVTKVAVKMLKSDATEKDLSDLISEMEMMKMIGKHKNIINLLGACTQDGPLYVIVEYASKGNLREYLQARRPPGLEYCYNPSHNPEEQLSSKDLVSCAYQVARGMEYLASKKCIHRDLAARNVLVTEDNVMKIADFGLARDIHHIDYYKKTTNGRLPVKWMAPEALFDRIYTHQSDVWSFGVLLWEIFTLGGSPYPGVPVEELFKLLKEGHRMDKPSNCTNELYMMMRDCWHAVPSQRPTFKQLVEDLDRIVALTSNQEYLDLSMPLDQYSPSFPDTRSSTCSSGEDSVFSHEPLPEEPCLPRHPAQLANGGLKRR
Described as above. The following applies: read-out: FGFR1 (Kd nM). The method, boiled down:
as §2

Another test deals with T4, FGFR3 (Homo sapiens, UniProt P22607).
T4 construct: made in house; host or cells: E. coli (BL21-derived), T7 phage
T4 sequence (P22607 23-806): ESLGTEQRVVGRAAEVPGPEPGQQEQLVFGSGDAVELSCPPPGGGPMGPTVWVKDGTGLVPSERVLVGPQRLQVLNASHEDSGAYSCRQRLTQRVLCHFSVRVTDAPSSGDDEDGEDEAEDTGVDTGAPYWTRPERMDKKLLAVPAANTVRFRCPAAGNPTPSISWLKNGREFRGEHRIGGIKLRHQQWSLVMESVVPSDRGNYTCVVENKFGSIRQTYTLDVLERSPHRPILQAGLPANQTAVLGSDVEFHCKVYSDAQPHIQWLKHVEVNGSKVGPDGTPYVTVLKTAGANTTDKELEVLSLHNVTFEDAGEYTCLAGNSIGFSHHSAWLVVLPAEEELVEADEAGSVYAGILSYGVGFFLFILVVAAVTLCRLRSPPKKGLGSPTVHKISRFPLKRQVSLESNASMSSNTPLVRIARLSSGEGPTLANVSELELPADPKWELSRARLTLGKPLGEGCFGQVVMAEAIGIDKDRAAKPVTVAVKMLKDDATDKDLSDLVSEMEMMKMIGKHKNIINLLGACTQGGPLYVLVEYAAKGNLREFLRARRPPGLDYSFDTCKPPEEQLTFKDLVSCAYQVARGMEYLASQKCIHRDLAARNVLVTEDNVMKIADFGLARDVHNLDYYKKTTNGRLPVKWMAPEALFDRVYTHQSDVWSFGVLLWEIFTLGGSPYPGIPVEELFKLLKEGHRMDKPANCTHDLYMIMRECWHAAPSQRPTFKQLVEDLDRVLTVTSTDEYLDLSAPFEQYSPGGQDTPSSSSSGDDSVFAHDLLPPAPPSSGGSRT
The description is as above. The settings on record: read-out: FGFR3 (Kd nM). A digest of the protocol: as §2

The next test concerns the target T5, FGFR4 (Homo sapiens, UniProt P22455).
T5 construct: made in house; host or cells: E. coli (BL21-derived), T7 phage
Described as above. The following applies: read-out: FGFR4 (Kd nM). A digest of the protocol: as §2

The test system of test [4] is HuH7 cell line (FGF19 amplification). The experiment in a line: Cancer cell line cell viability assay (Cell Titer-Glo), 120 hr. In kind it is cell-based. The following applies: Homo sapiens, Huh-7. The method, boiled down: as §1

SMILES strings stand for the structures.

T5 sequence (P22455 22-802): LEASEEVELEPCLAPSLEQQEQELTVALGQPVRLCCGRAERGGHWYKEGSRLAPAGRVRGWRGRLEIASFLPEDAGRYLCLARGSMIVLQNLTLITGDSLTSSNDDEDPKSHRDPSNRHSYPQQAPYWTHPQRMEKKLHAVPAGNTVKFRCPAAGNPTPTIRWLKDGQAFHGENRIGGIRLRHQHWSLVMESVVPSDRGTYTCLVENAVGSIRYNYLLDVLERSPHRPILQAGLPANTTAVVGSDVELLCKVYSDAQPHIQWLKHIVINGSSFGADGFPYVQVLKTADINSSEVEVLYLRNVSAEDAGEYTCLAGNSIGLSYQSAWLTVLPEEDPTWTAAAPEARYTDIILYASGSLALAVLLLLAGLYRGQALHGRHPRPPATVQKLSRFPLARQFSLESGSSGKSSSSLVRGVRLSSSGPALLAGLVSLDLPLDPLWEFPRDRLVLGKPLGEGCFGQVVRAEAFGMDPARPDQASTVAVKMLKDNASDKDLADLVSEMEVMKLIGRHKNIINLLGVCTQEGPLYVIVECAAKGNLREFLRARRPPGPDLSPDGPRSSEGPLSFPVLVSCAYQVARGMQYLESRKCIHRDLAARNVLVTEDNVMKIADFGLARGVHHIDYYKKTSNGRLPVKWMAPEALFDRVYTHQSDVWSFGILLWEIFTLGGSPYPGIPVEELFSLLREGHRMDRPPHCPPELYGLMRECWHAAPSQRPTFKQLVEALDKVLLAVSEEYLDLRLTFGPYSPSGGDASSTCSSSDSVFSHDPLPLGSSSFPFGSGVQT
T1 sequence (P22607 23-806 V555M): as the sequence (P22607 23-806) above, with V533M counted along it

Usually IC50 stands for the concentration that inhibits the measured activity by half. Read a low IC50 as higher potency. By Kd is commonly meant the concentration at which binding is half-saturated. For `CC(C)NCC1(C)CN(c2ncc(-c3n[nH]c4ccc(O[C@H](C)c5c(Cl)cncc5Cl)cc34)cc2C#N)C1` [Example 133, 5-[5-[(1R)-1-(3,5-dichloro-4-pyridyl)ethoxy]-1H-indazol-3-yl]-2-[3-[(isopropylamino)meth-yl]-3-methyl-azetidin-1-yl]pyridine-3-carbonitrile], the half-maximal inhibitory concentration (IC50) in test [1] is 50 to 200 nM; in test [2] it was 50 to 200 nM; in [3], 200 to 1000 nM; in test [4], 200 to 1000 nM. For the same compound, the dissociation constant Kd lay within 1 to 50 nM at FGFR3 (V555M); 50 to 300 nM on FGFR2; 1 to 50 nM at FGFR1; 1 to 50 nM on FGFR3; 1 to 50 nM at FGFR4.
In the case of `C[C@@H](Oc1cc2c(-c3cnc(N4CC(C)(NCC5CC5)C4)c(C#N)c3)n[nH]c2cc1F)c1c(Cl)cncc1Cl` [Example 134, (R)-2-(3-((cyclopropylmethyl)a-mino)-3-methylazetidin-1-yl)-5-(5-(1-(3,5-dichloropyridin-4-yl)ethoxy)-6-fluoro-1H-indazol-3-yl)nicotinonitrile], the concentration for half-maximal inhibition (IC50) in [1] lay in the range of 50 to 200 nM; in test [2] it was 200 to 1000 nM; in test [3] it was 200 to 1000 nM; in [4], 50 to 200 nM. Moreover, the Kd at FGFR3 (V555M) was in the range of 1 to 50 nM; on FGFR2 it was 50 to 300 nM; on FGFR1 it was 50 to 300 nM; at FGFR3 it was 1 to 50 nM; on FGFR4, 1 to 50 nM.
In the case of `C[C@@H](Oc1cc2c(-c3cnc(N4CC(C)(N5CCCC5)C4)c(C#N)c3)n[nH]c2cc1F)c1c(Cl)cncc1Cl` [Example 135, (R)-5-(5-(1-(3,5-dichloropyridin-4-yl)ethoxy)-6-fluoro-1H-indazol-3-yl)-2-(3-methyl-3-(pyrrolidin-1-yl)azetidin-1-yl)nicotinonitrile], the concentration for half-maximal inhibition (IC50) in test [1] lay within 50 to 200 nM; in [2], 200 to 1000 nM; in test [3], 200 to 1000 nM; in test [4] it was 50 to 200 nM. The Kd at FGFR3 (V555M) fell in the range of 1 to 50 nM; at FGFR2, 1 to 50 nM; at FGFR1, 50 to 300 nM; on FGFR3, 1 to 50 nM; on FGFR4 it was 1 to 50 nM.
For `COc1cc2[nH]nc(-c3cnc(N4CC(C)(NCC(C)C)C4)c(C#N)c3)c2cc1O[C@H](C)c1c(Cl)cncc1Cl` [Example 139, (R)-5-(5-(1-(3,5-dichloropyridin-4-yl)ethoxy)-6-methoxy-1H-indazol-3-yl)-2-(3-(isobutylamino)-3-methylazetidin-1-yl)nicotinonitrile], the half-inhibitory concentration (IC50) in [1] lay in the range of 0.1 to 50 nM; in test [2] it was 50 to 200 nM; in [3], 50 to 200 nM; in test [4] it was 0.1 to 50 nM. Besides, the dissociation constant (Kd) at FGFR3 (V555M), on FGFR2, at FGFR1, on FGFR3 and on FGFR4 was 1 to 50 nM in each case.
Consider `COc1cc2[nH]nc(-c3cnc(N4CC(C)(N)C4)c(C#N)c3)c2cc1O[C@H](C)c1c(Cl)cncc1Cl` [Example 143, 2-(3-amino-3-methyl-azetidin-1-yl)-5-[5-[(1R)-1-(3,5-dichloro-4-pyridyl)ethoxy]-6-methoxy-1H-indazol-3-yl]pyridine-3-carbonitrile], for which the IC50 in test [1] lay within 0.1 to 50 nM; in [2] it was 50 to 200 nM; in test [3] it was 50 to 200 nM; in [4] it was 0.1 to 50 nM. The Kd at FGFR3 (V555M), at FGFR2, at FGFR1, at FGFR3 and at FGFR4 was 1 to 50 nM throughout.
Regarding `CC[C@H](C)NC1(C)CN(c2ncc(-c3n[nH]c4cc(OC)c(O[C@H](C)c5c(Cl)cncc5Cl)cc34)cc2C#N)C1` [Example 144, 5-[5-[(1R)-1-(3,5-dichloro-4-pyridyl)ethoxy]-6-methoxy-1H-indazol-3-yl]-2-[3-methyl-3-[[(1S)-1-methylpropyl]amino]aze-tidin-1-yl]pyridine-3-carbonitrile], the IC50 was in the range of 0.1 to 50 nM in test [1], 50 to 200 nM in test [2], 50 to 200 nM in [3] and 0.1 to 50 nM in [4]. Moreover, the Kd on FGFR3 (V555M), on FGFR2, on FGFR1, at FGFR3 and at FGFR4 was 1 to 50 nM throughout.
Regarding `CC[C@@H](C)NC1(C)CN(c2ncc(-c3n[nH]c4cc(OC)c(O[C@H](C)c5c(Cl)cncc5Cl)cc34)cc2C#N)C1` [Example 145, 5-[5-[(1R)-1-(3,5-dichloro-4-pyridyl)ethoxy]-6-methoxy-1H-indazol-3-yl]-2-[3-methyl-3-[[(1R)-1-methylpropyl]amino]aze-tidin-1-yl]pyridine-3-carbonitrile], the IC50 was 0.1 to 50 nM in [1], 50 to 200 nM in test [2], 50 to 200 nM in test [3] and 0.1 to 50 nM in [4]. The Kd at FGFR3 (V555M), at FGFR2, at FGFR1, on FGFR3 and on FGFR4 was 1 to 50 nM throughout.
Turning to `CCCNC1(C)CN(c2ncc(-c3n[nH]c4cc(OC)c(O[C@H](C)c5c(Cl)cncc5Cl)cc34)cc2C#N)C1` [Example 146, 5-[5-[(1R)-1-(3,5-dichloro-4-pyridyl)ethoxy]-6-methoxy-1H-indazol-3-yl]-2-[3-methyl-3-(propylamino)azetidin-1-yl]pyridine-3-carbonitrile], the IC50 in test [1] was 0.1 to 50 nM; in [2], 50 to 200 nM; in test [3], 50 to 200 nM; in [4], 0.1 to 50 nM. The Kd at FGFR3 (V555M), at FGFR2, at FGFR1, on FGFR3 and at FGFR4 was 1 to 50 nM each time.
On to `C=CCNC1(C)CN(c2ncc(-c3n[nH]c4cc(OC)c(O[C@H](C)c5c(Cl)cncc5Cl)cc34)cc2C#N)C1` [Example 147, (R)-2-(3-(allylamino)-3-methylazetidin-1-yl)-5-(5-(1-(3,5-dichloropyridin-4-yl)ethoxy)-6-methoxy-1H-indazol-3-yl)nicotinonitrile], for which the concentration for half-maximal inhibition (IC50) in test [1] was 0.1 to 50 nM; in test [2], 50 to 200 nM; in test [3], 50 to 200 nM; in test [4], 0.1 to 50 nM. The Kd on FGFR3 (V555M), at FGFR2, on FGFR1, on FGFR3 and on FGFR4 was 1 to 50 nM in each case.
As for `C[C@@H](Oc1ccc2[nH]nc(-c3cnc(N4CC(C)(N5CCS(=O)(=O)CC5)C4)c(C#N)c3)c2c1)c1c(Cl)cncc1Cl` [Example 321, (R)-5-(5-(1-(3,5-dichloropyridin-4-yl)ethoxy)-1H-indazol-3-yl)-2-(3-(1,1-dioxidothio-morpholino)-3-methylazetidin-1-yl)nicotinonitrile], the IC50 lay in the range of 50 to 200 nM in [1], 200 to 1000 nM in test [2], 200 to 1000 nM in test [3] and 0.1 to 50 nM in test [4]. Besides, the Kd at FGFR3 (V555M), on FGFR2, at FGFR1, on FGFR3 and on FGFR4 was 1 to 50 nM in each case.
With `C[C@@H](Oc1ccc2[nH]nc(-c3cnc(N4CC(C)(NCCS(C)(=O)=O)C4)c(C#N)c3)c2c1)c1c(Cl)cncc1Cl` [Example 325, 5-[5-[(1R)-1-(3,5-dichloro-4-pyridyl)ethoxy]-1H-indazol-3-yl]-2-[3-methyl-3-(2-methylsulfonylethyl-amino)azetidin-1-yl]pyridine-3-carbonitrile], the concentration for half-maximal inhibition (IC50) lay in the range of 50 to 200 nM in test [1], 200 to 1000 nM in [2], 50 to 200 nM in [3] and 0.1 to 50 nM in [4]. The Kd on FGFR3 (V555M), on FGFR2, at FGFR1, at FGFR3 and on FGFR4 was 1 to 50 nM each time.
With `C[C@@H](Oc1ccc2[nH]nc(-c3cnc(N4CC(C)(N5CCP(C)(=O)CC5)C4)c(C#N)c3)c2c1)c1c(Cl)cncc1Cl` [Example 328, (R)-5-(5-(1-(3,5-dichloropyridin-4-yl)ethoxy)-1H-indazol-3-yl)-2-(3-methyl-3-(4-methyl-4-oxido-1,4-azaphosphinan-1-yl)azetidin-1-yl)nicotinonitrile], the half-maximal inhibitory concentration (IC50) in test [1] was 50 to 200 nM; in test [2], > 1000 nM; in test [3], 200 to 1000 nM; in test [4] it was 50 to 200 nM. Besides, the Kd at FGFR3 (V555M), at FGFR2, at FGFR1, on FGFR3 and on FGFR4 was 1 to 50 nM in each case.
